Laboratory results taken from PMC8308721 (Pharmaceutics, 2021).
Several values for one entry are separate records, joined by “and”; a condition that tells them apart may be missing. Equal entries are not always repeated. Entries after “also recorded” stand apart in the source; their conditions may differ.

Legend:
[1] = Peptide stability in mouse plasma (UPLC); format: in vitro ADME; settings: for Recovered Peptide after 1 h in Mouse Plasma [%]: CD-1 mouse plasma, 37 °C, esters recovered as the corresponding acid
Experimental: (§1) The in vitro stability of peptides was assessed according to a previously described protocol with modifications. Peptides (3 g/L, 49 µL) dissolved in […] (DMSO/TWEEN 80/normal saline (5/5/90, v/v/v) were diluted with pooled mouse dipotassium ethylenediaminetetraacetic acid containing pooled plasma (Innovative Research, Novi, MI, USA) or pooled human cerebrospinal fluid (CSF) (both BioIVT, Westbury, NY, USA) to a total volume of 500 µL. The final peptide concentration was kept constant at 315 µmol/L in all experiments. The mixture was incubated (37 °C, 750 rpm; Thermomixer, Eppendorf AG, Hamburg, Germany) and an aliquot (95 µL) was taken at 0, 5, 15, 60, and 300 min. For peptide quantification, the sample was mixed with aqueous acetonitrile (90%, v/v, 300 µL) containing FA, 0.1% v/v and incubated on ice for 30 min. After two centrifugation steps (21,100× g, 3 min, Sorvall Legend Micro 21R Centrifuge, Thermo Scientific, Waltham, MA, USA), the supernatant (300 µL) was collected, freeze-dried (FreeZone Triad Cascade Benchtop, Labcono, Kansas City, MO, USA), reconstituted in aqueous acetonitrile (4.5%, v/v) containing FA (0.1%, v/v), and stored at −20 °C. Samples were analyzed by ultra-performance liquid chromatography (UPLC).
An ACQUITY UPLC H-Class chromatography system (Waters, Milford, MA, USA) coupled on-line to a photodiode array detector (absorbance recorded at 214 nm, Waters) and to the electrospray ionization source on a mass spectrometer (QDa detector, Waters) operated in the positive ion mode was used. Separation relied on a BEH-C18 column (inner diameter: 1.1 mm; length: 50 mm; particle size: 1.7 µm, Waters) at a flow rate of 0.1 mL/min using a linear aqueous acetonitrile gradient in the presence of FA (0.1%, v/v). Ionization was carried out at a source temperature of 450 °C using a cone voltage of 10 V and a capillary voltage of 1.5 kV. Mass spectra were typically acquired for an m/z range from 50 to 1250 at a sampling rate of 2 points per second. Quantities of the degraded peptides and resulting metabolites were estimated using peak areas of the UV signal at 214 nm relative to the initial peak areas (t = 0). Metabolites were identified using mass spectrometry by detecting the singly charged molecular ions.

human DOR = biological target: T1, human DOR (Homo sapiens, UniProt P41143); assay: Competitive radioligand ([3H]DADLE) displacement assay at DOR; format: binding; settings: analog at 6 nM
T1 construct: host or cells: COS-1 cells
T1 sequence (P41143 whole entry): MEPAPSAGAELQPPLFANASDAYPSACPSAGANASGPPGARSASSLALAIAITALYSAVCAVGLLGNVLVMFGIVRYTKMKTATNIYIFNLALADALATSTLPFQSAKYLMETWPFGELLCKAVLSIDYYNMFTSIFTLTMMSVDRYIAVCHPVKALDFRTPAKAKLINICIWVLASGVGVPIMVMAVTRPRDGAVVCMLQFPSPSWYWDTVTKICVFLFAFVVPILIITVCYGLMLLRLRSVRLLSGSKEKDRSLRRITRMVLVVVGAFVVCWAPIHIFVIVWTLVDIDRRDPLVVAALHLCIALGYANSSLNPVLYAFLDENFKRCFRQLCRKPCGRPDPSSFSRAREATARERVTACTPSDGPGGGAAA
Experimental: The binding affinity of peptides to the DOR was performed by Eurofins Cerep SA (Celle-Lévescault, France) using a competitive radioligand displacement assay according to a previously described method.

female CD-1 mice [2] = assay: Hot-plate test; format: in vivo, mouse; settings: for Antinociception (AUC0-5h, %MPE·h): s.c. 20 µmol/kg (~13 mg/kg), female CD-1 mice
Experimental: Animal use and procedures were in accordance with the guidelines of The University of British Columbia animal care committee and the Canadian Council for Animal Care (CCAC, Protocol code: A17-0128, approval date: 30 August 2018). Experiments involved adult female CD-1 mice (25–30 g) housed under a 12 h light/dark cycle and had ad libitum access to rodent chow and water. Mice were allowed an acclimatization period of at least one week in the animal facility before experiments. Subcutaneous (s.c.) or intraperitoneal (i.p.) injections of drugs or vehicles were administered to animals at a volume of 10 mL/kg. In the formalin foot assay, each mouse was used once and euthanized immediately upon completion of the experiment due to irreversible tissue damage in the injected paw.
(§2) A commercially available hot-plate analgesia meter consisting of a round aluminum surface with (25 cm diameter) from Harvard Apparatus (Holliston, MA, USA) was used. A day before the experiment mice were acclimatized for 5 min in a transparent Plexiglas cylinder (height, 30 cm; diameter, 25 cm) on the switched-off hot-plate apparatus. Thereafter, the baseline latency of each animal was measured on the hot surface (52.0 ± 0.1 °C, 30 s cut-off time to prevent tissue damage) until a nociceptive response was induced. The animal was immediately removed from the hot surface after licking, lifting, or fluttering of the hind paws was observed. Latency responses after treatment were obtained in the same way. The %MPE for each animal was calculated using this equation: %MPE = (LR − BR)/(MR − BR)100%, where LR, MR, and BR represent measured, maximum (30 s), and baseline (~5 s) response time, respectively. The AUC for each animal was calculated from the %MPE time courses using this equation: AUC = (%MPE(Tp1) + %MPE(Tp2))·(Tp2 − Tp1)/2, where Tp represents the time interval between adjacent time points on the curve. Data were plotted as mean ± SEM.

female CD-1 mice [3] = assay: Respiratory depression assay; format: in vivo, mouse
Experimental: The respiratory rate was assessed in awake mice lightly restrained in a well-ventilated 50 mL falcon tube with a darkened tip. Prior to the drug treatment, each animal was habituated in the tube for 30 min. The falcon tube was secured onto a stand facing lengthwise towards a video camera. […] Animals were recorded at selected time points for 10 min to measure the respiration rate.

female CD-1 mice [4] = assay: Dependence study, Nlx-induced jumps; settings: 8 days, Nlx 4 mg/kg i.p.
Experimental: Two hours after the last injection at 3 PM, mice received an i.p. injection of Nlx (4 mg/kg), after which they were immediately placed in a Plexiglas cylinder (height, 30 cm; diameter, 25 cm). The number of jumps induced by Nlx, defined as simultaneous removal of all four paws from the ground surface, were counted.

female CD-1 mice [5] = assay: Tolerance study, hot-plate after repeated dosing; format: in vivo, mouse; settings: multidose tolerance and physical dependence tests, 5-point scale
Text: (§3) Throughout the eight-day duration of experiments investigating the development of physical dependence and tolerance, clinical health scores (CHS) of mice on a 5-point scale (0 normal and 5 highest severity) provided by the University of British Columbia Animal Care Committee were monitored. Scores were given in 5 categories (appearance (grooming, posture), behavior (gait, activity), local injection site skin appearance, neurological signs, and body weight). Based on the guidelines, mice with a score of 5 in any category or a cumulative score of >15, or body weight loss of >20% would be euthanized.
as §2, with “A day before the experiment mice were acclimatized for 5 min in a transparent Plexiglas cylinder (height, 30 cm; diameter, 25 cm) on the switched-off hot-plate apparatus.” left out, “The animal was immediately removed from the hot surface after licking, lifting, or fluttering of the hind paws was observed. Latency responses after treatment were obtained in the same way.” left out, “Data were plotted as mean ± SEM.” left out

female CD-1 mice [6] = assay: Safety test in mice, escalating doses; format: in vivo, mouse
Text: as §3
Mice were then monitored for mortality and clinical signs including respiratory activity, body weight, hydration, behavior (self-biting and circling), and pain assessment (Facial Grimace) to determine the maximum tolerated dose.

[7] = Peptide stability in human cerebrospinal fluid (UPLC); format: in vitro ADME; settings: pooled human cerebrospinal fluid, pooled human CSF, read-out: peptide recovered in CSF after 5 h of incubation
Experimental: as §1, with “After two centrifugation steps (21,100× g, 3 min, Sorvall Legend Micro 21R Centrifuge, Thermo Scientific, Waltham, MA, USA), the supernatant (300 µL) was collected, freeze-dried (FreeZone Triad Cascade Benchtop, Labcono, Kansas City, MO, USA), reconstituted in aqueous acetonitrile (4.5%, v/v) containing FA (0.1%, v/v), and stored at −20 °C.” left out
An ACQUITY UPLC H-Class chromatography system (Waters, Milford, MA, USA) coupled on-line to a photodiode array detector (absorbance recorded at 214 nm, Waters) and to the electrospray ionization source on a mass spectrometer (QDa detector, Waters) operated in the positive ion mode was used. […] Quantities of the degraded peptides and resulting metabolites were estimated using peak areas of the UV signal at 214 nm relative to the initial peak areas (t = 0). […]

[8] = day six of treatment; cited from earlier work
C57BL6 mice = settings: cited from earlier work
female CD-1 mice [9] = assay: Formalin foot assay; format: in vivo, mouse; settings: morphine 10 mg/kg s.c.
Experimental: On the day of the experiment, mice were acclimatized to the experimental setup by putting them in darkened, non-transparent plexiglas cylinders (height, 20 cm; diameter, 9 cm) placed on a glass plane for 2 h. […] After successful injection, mice were immediately placed into cylinders and their behavior was monitored for 1 h. Video cameras (Lorex Technology, Markham, ON, Canada) underneath each animal were used to record the nociceptive responses defined as licking or biting at the formalin injected right paw. The accumulated licking and biting time of each animal was determined and recorded in 5 min bins. The total response time was plotted as early phase 1 from 0 to 5 min, and late phase 2 from 20 to 40 min after formalin injection.

mice = settings: mouse, in vivo; cited from earlier work
plasma = settings: cited from earlier work
[10] = pooled mouse dipotassium ethylenediaminetetraacetic acid containing pooled plasma; settings: 37 °C, up to 300 min
[11] = morphine s.c. 10 mg/kg, hot-plate

Molecule: COC(=O)[C@H](CC(C)C)NC(=O)[C@H](Cc1ccccc1)NC(=O)CNC(=O)CNC(=O)[C@H](Cc1ccc(O)cc1)NC(C)=O [KK-14]
- Recovered Peptide after 1 h in Mouse Plasma [%] [1]: 82 ± 5%

Molecule: COC(=O)[C@H](CC(C)C)NC(=O)[C@H](Cc1ccccc1)NC(=O)CNC(=O)CNC(=O)[C@H](Cc1ccc(O)cc1)NC(=O)Cc1ccccc1 [KK-81]
- Relative Binding to DOR Compared to Leu-ENK [%] (human DOR): 41 ± 25%
- Recovered Peptide after 1 h in Mouse Plasma [%] [1]: 88 ± 7%

Molecule: CCCCCC(=O)N[C@@H](Cc1ccc(O)cc1)C(=O)NCC(=O)NCC(=O)N[C@@H](Cc1ccccc1)C(=O)N[C@@H](CC(C)C)C(=O)OC [KK-93]
- Recovered Peptide after 1 h in Mouse Plasma [%] [1]: 85 ± 7%
- Antinociception (AUC0-5h, %MPE·h) (female CD-1 mice [2]; hot-plate): 51 ± 13 %MPE·h

Molecule: COC(=O)[C@H](CC(C)C)NC(=O)[C@H](Cc1ccccc1)NC(=O)CNC(=O)CNC(=O)[C@H](Cc1ccc(O)cc1)NC(=O)C(C)(C)C [KK-102]
- Recovered Peptide after 1 h in Mouse Plasma [%] [1]: 94 ± 5% and 94 ± 3%
- half-life ([1]; mouse, plasma): 2.5 min
- increase of antinociception AUC compared to Leu-ENK (female CD-1 mice [2]; hot-plate, s.c. ~13 mg/kg): 8 fold
- Antinociception (AUC0-5h, %MPE·h) (female CD-1 mice [2]; hot-plate): 112 %MPE·h and 112 ± 24 %MPE·h

Molecule: CC(C)C[C@H](NC(=O)[C@H](Cc1ccccc1)NC(=O)CNC(=O)CNC(=O)[C@H](Cc1ccc(O)cc1)NC(=O)C(C)(C)C)C(=O)O [KK-103]
- respiration rate versus vehicle (female CD-1 mice [3]; KK-103 13 mg/kg s.c., 30 to 240 min): comparable to that of mice treated with vehicle
- physical dependence, Nlx-induced jumps in first 10 min (female CD-1 mice [4]; KK-103 13 mg/kg twice daily): not a single jump was observed
- clinical health score (CHS) (female CD-1 mice [5]): 0
- abnormal behaviors / clinical scores at maximum deliverable dose (female CD-1 mice [6]; s.c. 650 mg/kg): did not show any signs of abnormal behaviors
- maximum deliverable dose (safe) (female CD-1 mice [6]; s.c., limited by solubility): 650 mg/kg
- Recovered Peptide after 1 h in Mouse Plasma [%] [1]: 93 ± 1%
- extrapolated plasma half-life ([1]; mouse plasma in vitro, extrapolated from 5 h incubation): 37 h
- remaining at 5 h, 315 µmol/L ([1]; mouse, pooled mouse K2EDTA plasma, 5 h, plasma, read-out: intact peptide remaining in plasma after 5 h of incubation): > 90%
- increase of plasma half-life over Leu-ENK ([1]; plasma in vitro): ~ 90 fold and 90 fold
- remaining at 5 h, 315 µmol/L [7]: > 95%

Molecule: C=CCCC(=O)N[C@@H](Cc1ccc(O)cc1)C(=O)NCC(=O)NCC(=O)N[C@@H](Cc1ccccc1)C(=O)N[C@@H](CC(C)C)C(=O)OC [KK-105]
- Recovered Peptide after 1 h in Mouse Plasma [%] [1]: 80 ± 7%

Molecule: CCCCCCCC(=O)N[C@@H](Cc1ccc(O)cc1)C(=O)NCC(=O)NCC(=O)N[C@@H](Cc1ccccc1)C(=O)N[C@@H](CC(C)C)C(=O)OC [KK-108]
- Recovered Peptide after 1 h in Mouse Plasma [%] [1]: 73 ± 4%
- Antinociception (AUC0-5h, %MPE·h) (female CD-1 mice [2]; hot-plate): 48 ± 15 %MPE·h

Molecule: COC(=O)[C@H](CC(C)C)NC(=O)[C@H](Cc1ccccc1)NC(=O)CNC(=O)CNC(=O)[C@H](Cc1ccc(O)cc1)NC(=O)C1CCCCC1 [KK-112]
- Recovered Peptide after 1 h in Mouse Plasma [%] [1]: 62 ± 4%
- Antinociception (AUC0-5h, %MPE·h) (female CD-1 mice [2]; hot-plate): 51 ± 10 %MPE·h

Molecule: CC(C)C[C@H](NC(=O)[C@H](Cc1ccccc1)NC(=O)CNC(=O)CNC(=O)[C@@H](N)Cc1ccc(O)cc1)C(=O)O [Leu-ENK, Leu-Enkephalin]
- intact peptide remaining in plasma after 5 h of incubation ([1]; 5 h, plasma): undetectable
- Recovered Peptide after 1 h in Mouse Plasma [%] [1]: 23 ± 3% and 23 ± 2%
- Antinociception (AUC0-5h, %MPE·h) (female CD-1 mice [2]; hot-plate): 14 %MPE·h and 14 ± 6 %MPE·h
- peak antinociception (female CD-1 mice [2]; s.c. 13 mg/kg, hot-plate): ~ 10 %MPE
- time of decline of antinociception to baseline (female CD-1 mice [2]; s.c. 13 mg/kg, hot-plate): 1.5 h
- time of peak antinociception post-injection (female CD-1 mice [2]; s.c. 13 mg/kg, hot-plate): 1 h
- remaining at 5 h, 315 µmol/L [7]: > 80%

Molecule: CN1CC[C@]23c4c5ccc(O)c4O[C@H]2[C@@H](O)C=C[C@H]3[C@H]1C5 [morphine]
- residual effect of morphine [8]: approximately 30%
- decrease of respiratory rate compared with vehicle (female CD-1 mice [3]; morphine 10 mg/kg s.c., 30 min post-injection): 56%
- time of peak effect (C57BL6 mice): 20 min
- physical dependence, Nlx-induced withdrawal (female CD-1 mice [4]; morphine 10 mg/kg twice daily): significant withdrawal syndromes
- reduction of paw licking and biting time compared to control, phase 1 (female CD-1 mice [9]; phase 1 (0–5 min)): 30%
- nociceptive response, phase 2 (female CD-1 mice [9]; phase 2 (20–40 min)): completely diminished the nociceptive response
- decrease of breathing rate (mice): 1.7 fold
- antinociception at 2 h (female CD-1 mice [2]; morphine s.c. 10 mg/kg, 2 h): ~ 10 %MPE
- maximum antinociception (female CD-1 mice [2]; [11]): 87 %MPE
- time to maximum antinociception (female CD-1 mice [2]; [11]): ≤ 15 min

Molecule: H2N-YGGFL-COOH
- cleaved bond (plasma): Tyr-Gly, first_seen; also recorded: Gly-Phe
- fragment found [10]: H2N-GGFL-COOH, major; also recorded: H2N-FL-COOH, major
